Laboratory results: patent publication US20160058829A1, “ANTI-FIBROTIC PEPTIDES AND THEIR USE IN METHODS FOR TREATING DISEASES AND DISORDERS CHARACTERIZED BY FIBROSIS” (Thrasos Innovation, Inc., priority 2011, published 2016)
Positions of bridges follow the written chain, without caps; N, C: chain ends. Non-standard residues stand in square brackets, D forms with d. Dap = NC[C@H](N)C(=O)O

System: human proximal tubule epithelial cells (HK2)
Test: D-glucose-induced EMT assay, E-cadherin immunofluorescence with colorimetric image analysis
Type: cell-based
Settings: for Percent inhibition of D-glucose-induced EMT: 0% = D-glucose untreated, 100% = media without D-glucose
Experimental: Chronic hyperglycemia is a known cause of renal fibrosis in type 2 diabetes. The assay in this example induces the transdifferentiation from the epithelial to the mesenchymal phenotype (EMT) in human proximal tubule epithelial cells (HK2) by exposing them to high levels of D-glucose (100 mM and 200 mM). […] Exposure to 100 mM D-glucose results in the loss of E-cadherine expression as evidenced by the loss of the fluorescene signal. Using this assay test compounds are evaluated based on their ability to inhibit the EMT processes in the presence of high levels of D-glucose. FIGS. 4-16 are fluorescence micrographs of HK2 cells exposed to 100 mM D-glucose and 100 uM of SEQ IS NOs 1 through 11, respectively. Note that all but SEQ ID NOs 10 and 11 were able to preserve the epithelial phenotype (i.e., inhibit the EMT).
Results are provided in the context of FIG. 1 and Table 3, below. In Table 3 below, compound response is scored using image analysis as described herein in the method of Methods and Materials, part C. A 0% response corresponds to the signal for 100 mM (or 200 mM) D-glucose (untreated) while the 100% response corresponds to the signal for media in the absence of D-glucose.
It has been shown that transdifferentiation of proximal tubular epithelial cells is a critical step in the development of renal fibrosis, and that this is associated with a loss of the epithelial phenotypic marker, E-cadherin expression. This provides the basis for the development of a cell-based screening assay in which high concentrations of D-Glucose (50-100 mM) are used to induce a loss of E-cadherin expression in human renal proximal tubular epithelial (HK-2) cells, and compounds are tested for their ability to reverse the loss E-cadherin expression.
Materials: • Human proximal tubular epithelial cells, HK-2 (ATCC #CRL-2190) • Serum-free keratinocyte medium (GIBCO #17005-042, K-SFM) • Epidermal growth factor (EGF: 5 ng/mL) • Bovine pituitary extract (BPE: 40 ug/mL) • Primary antibody, Mouse IgG anti-E-cadherin (R&D Systems # MAB1838) • BSA [Sigma #A7030] • secondary antibody, FITC-conjugated Goat anti-mouse IgG (Fab2) fragment (Sigma-Aldrich # F-2653) • Paraformaldehyde (10%)) • Triton X-100 (Sigma # T-9284) • PBS (Fisher Scientific #BP399-1) • D-PBS (Invitrogen #14190-144) • Polypropylene tips (Axygen, Inc. 0.5-10 uL, cat # T-300-L-R; 1-200 uL, Cat # T-200-L-R; 1-1000 uL, Cat # T-1000-C-L-R) • 50 mL polypropylene culture tubes (Fisher Scientific, cat #06-443-18) • 24-well Coster cell culture plates (Fisher Scientific #07-200-84)
Reagents & Test Samples: • Positive control: BMP-7, assayed at concentrations 0.1 and 1 ug/mL • Test compounds (peptides): each tested at final concentrations 100 uM and 200 uM.
Assay Procedure for Cell Culture Assay: • Run assay in 24-well culture plates. • Seed HK-2 cells at a density between 25,000 and 30,000 cells per well in lmL K-SFM medium with supplements added (growth medium) • Incubate HK-2 cells for 24 hours at 37° C., and let cells attach the plate • Next Day afternoon, change the medium with K-SFM medium with no added supplements (serum free medium) in all wells except the first two control wells. • Continue incubating HK-2 cells overnight at 37° C. • Next Day, aspirate the medium from all wells. Incubate the cells in growth medium (first two control wells) or expose them to test compounds for 2 hours at 37° C. Final concentrations of each Test compound are 100 and 200 uM. BMP-7 serves as a positive control in the assay. • After incubation, add D-glucose to all wells except first two control wells. Final concentrations of D-Glucose are 50 and 100 mM. • Incubate HK-2 cells for 60 hours at 37° C. • Aspirate the medium from all wells. To the wells, add pre-warmed growth medium or serum free medium containing D-glucose alone or D-glucose and test compound or D-glucose and BMP-7. Final concentrations of D-Glucose and Test compound are the same as above. • Continue incubating HK-2 cells for 24 hours at 37° C. […]

Substance: 8 (H-CYYDNSSSVLCKKYRS-OH; disulfide 1-11; SMILES CC(C)C[C@@H]1NC(=O)[C@H](C(C)C)NC(=O)[C@H](CO)NC(=O)[C@H](CO)NC(=O)[C@H](CO)NC(=O)[C@H](CC(N)=O)NC(=O)[C@H](CC(=O)O)NC(=O)[C@H](Cc2ccc(O)cc2)NC(=O)[C@H](Cc2ccc(O)cc2)NC(=O)[C@@H](N)CSSC[C@@H](C(=O)N[C@@H](CCCCN)C(=O)N[C@@H](CCCCN)C(=O)N[C@@H](Cc2ccc(O)cc2)C(=O)N[C@@H](CCCNC(=N)N)C(=O)N[C@@H](CO)C(=O)O)NC1=O) [compound 8]
- Percent inhibition of D-glucose-induced EMT (100 uM peptide): 155%
- Percent inhibition of D-glucose-induced EMT (200 uM peptide): 104%

Substance: 9 (H-[Dap]YYDNSSSVLDKRYRS-OH; SMILES CC(C)C[C@H](NC(=O)[C@@H](NC(=O)[C@H](CO)NC(=O)[C@H](CO)NC(=O)[C@H](CO)NC(=O)[C@H](CC(N)=O)NC(=O)[C@H](CC(=O)O)NC(=O)[C@H](Cc1ccc(O)cc1)NC(=O)[C@H](Cc1ccc(O)cc1)NC(=O)[C@@H](N)CN)C(C)C)C(=O)N[C@@H](CC(=O)O)C(=O)N[C@@H](CCCCN)C(=O)N[C@@H](CCCNC(=N)N)C(=O)N[C@@H](Cc1ccc(O)cc1)C(=O)N[C@@H](CCCNC(=N)N)C(=O)N[C@@H](CO)C(=O)O) [compound 9]
- Percent inhibition of D-glucose-induced EMT (100 uM peptide): 83%
- Percent inhibition of D-glucose-induced EMT (200 uM peptide): 125%

Substance: 10 (H-CYFNDSSQVLCKRYRS-OH; disulfide 1-11; SMILES CC(C)C[C@@H]1NC(=O)[C@H](C(C)C)NC(=O)[C@H](CCC(N)=O)NC(=O)[C@H](CO)NC(=O)[C@H](CO)NC(=O)[C@H](CC(=O)O)NC(=O)[C@H](CC(N)=O)NC(=O)[C@H](Cc2ccccc2)NC(=O)[C@H](Cc2ccc(O)cc2)NC(=O)[C@@H](N)CSSC[C@@H](C(=O)N[C@@H](CCCCN)C(=O)N[C@@H](CCCNC(=N)N)C(=O)N[C@@H](Cc2ccc(O)cc2)C(=O)N[C@@H](CCCNC(=N)N)C(=O)N[C@@H](CO)C(=O)O)NC1=O) [compound 10]
- Percent inhibition of D-glucose-induced EMT (100 uM peptide): 20%
- Percent inhibition of D-glucose-induced EMT (200 uM peptide): 17%

Substance: 11 (H-CYYDDSSSVLCKKYRS-OH; disulfide 1-11; SMILES CC(C)C[C@@H]1NC(=O)[C@H](C(C)C)NC(=O)[C@H](CO)NC(=O)[C@H](CO)NC(=O)[C@H](CO)NC(=O)[C@H](CC(=O)O)NC(=O)[C@H](CC(=O)O)NC(=O)[C@H](Cc2ccc(O)cc2)NC(=O)[C@H](Cc2ccc(O)cc2)NC(=O)[C@@H](N)CSSC[C@@H](C(=O)N[C@@H](CCCCN)C(=O)N[C@@H](CCCCN)C(=O)N[C@@H](Cc2ccc(O)cc2)C(=O)N[C@@H](CCCNC(=N)N)C(=O)N[C@@H](CO)C(=O)O)NC1=O) [compound 11]
- Percent inhibition of D-glucose-induced EMT (200 uM peptide): −13%

Substance: (H)-CYFNDSSQVLCKRYRS-(OH) (H-CYFNDSSQVLCKRYRS-OH; disulfide 1-11; SMILES CC(C)C[C@@H]1NC(=O)[C@H](C(C)C)NC(=O)[C@H](CCC(N)=O)NC(=O)[C@H](CO)NC(=O)[C@H](CO)NC(=O)[C@H](CC(=O)O)NC(=O)[C@H](CC(N)=O)NC(=O)[C@H](Cc2ccccc2)NC(=O)[C@H](Cc2ccc(O)cc2)NC(=O)[C@@H](N)CSSC[C@@H](C(=O)N[C@@H](CCCCN)C(=O)N[C@@H](CCCNC(=N)N)C(=O)N[C@@H](Cc2ccc(O)cc2)C(=O)N[C@@H](CCCNC(=N)N)C(=O)N[C@@H](CO)C(=O)O)NC1=O) [SEQ ID NO: 10]
- preservation of the epithelial phenotype (inhibition of EMT), anti-fibrotic effect (HK2 cells, high D-glucose): very weak anti-fibrotic effect
